One experiment concerns the target T1, H₃ receptors (Cavia porcellus, UniProt Q9JI35).
T1 construct: The source of the H₃ receptors in this experiment was guinea pig brain; from tissue; host or cells: guinea pig brain membranes
Briefly: H3 Receptor Binding Assay. Conditions: guinea pig brain membranes; for Ki: 3 nM [³H]R-α-methylhistamine or [³H]-N-methylhistamine, 30° for 30 min; for H3 Binding (inhibition of the specific binding of radioactive ligand): final concentration 2 µg/mL with 0.1% DMSO, not serially diluted (70% or less inhibition). As to the method: H₃ Receptor Binding Assay
The source of the H₃ receptors in this experiment was guinea pig brain. The animals used weighed 400-600 g. The tissue was homogenized using a Polytron in a solution of 50 mM Tris, pH 7.5. The final concentration of tissue in the homogenization buffer was 10% w/v. The homogenates were centrifuged at 1000 x g for 10 min. in order to remove clumps of tissue and debris. The resulting supernatants were then centrifuged at 50,000 x g for 20 min. in order to sediment the membranes, which were nest washed 3 times in homogenization buffer (50,000 x g for 20 min. each). The membranes were frozen and stored at -70°C until needed.
All compounds to be tested were dissolved in DMSO and then diluted into the binding buffer (50 mM Tris, pH 7.5) such that the final concentration was 2 µg/mL with 0.1% DMSO. Membranes were then added (400 µg of protein) to the reaction tubes. The reaction was started by the addition of 3 nM [³H]R-α-methylhistamine (8.8 Ci/mmol) or [³H]-N-methylhistamine (80 Ci/mmol) and incubated at 30° for 30 min. Bound ligand was separated from unbound ligand by filtration, and the amount of radioactive ligand bound to the membranes was quantitiated by liquid scintillation spectrometry.

For experiment [1], the target named is H₃ receptors in rat brain (Rattus norvegicus, UniProt Q9QYN8). Conditions: complete agonists of the H₃ receptors; cited from earlier work.
H₃ receptors in rat brain, sequence (Q9QYN8 whole entry): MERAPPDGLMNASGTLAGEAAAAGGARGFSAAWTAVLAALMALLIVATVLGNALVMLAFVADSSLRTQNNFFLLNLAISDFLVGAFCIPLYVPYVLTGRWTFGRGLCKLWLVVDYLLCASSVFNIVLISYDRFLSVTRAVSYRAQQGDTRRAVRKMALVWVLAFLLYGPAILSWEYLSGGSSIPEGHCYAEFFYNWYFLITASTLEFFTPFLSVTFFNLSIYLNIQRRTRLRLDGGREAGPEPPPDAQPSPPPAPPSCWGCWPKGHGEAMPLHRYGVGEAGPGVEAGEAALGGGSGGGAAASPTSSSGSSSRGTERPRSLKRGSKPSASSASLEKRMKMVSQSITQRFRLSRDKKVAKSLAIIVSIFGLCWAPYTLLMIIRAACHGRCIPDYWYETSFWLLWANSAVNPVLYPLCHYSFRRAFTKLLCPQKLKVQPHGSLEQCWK

Here are results for 6 compounds from patent EP0618905B1, “IMIDAZOLYL-ALKYL-PIPERAZINE AND -DIAZEPINE DERIVATIVES AS HISTAMINE H3 AGONISTS/ANTAGONISTS” (SCHERING CORPORATION, priority 1991, dated 1993).

T1 sequence (Q9JI35 whole entry): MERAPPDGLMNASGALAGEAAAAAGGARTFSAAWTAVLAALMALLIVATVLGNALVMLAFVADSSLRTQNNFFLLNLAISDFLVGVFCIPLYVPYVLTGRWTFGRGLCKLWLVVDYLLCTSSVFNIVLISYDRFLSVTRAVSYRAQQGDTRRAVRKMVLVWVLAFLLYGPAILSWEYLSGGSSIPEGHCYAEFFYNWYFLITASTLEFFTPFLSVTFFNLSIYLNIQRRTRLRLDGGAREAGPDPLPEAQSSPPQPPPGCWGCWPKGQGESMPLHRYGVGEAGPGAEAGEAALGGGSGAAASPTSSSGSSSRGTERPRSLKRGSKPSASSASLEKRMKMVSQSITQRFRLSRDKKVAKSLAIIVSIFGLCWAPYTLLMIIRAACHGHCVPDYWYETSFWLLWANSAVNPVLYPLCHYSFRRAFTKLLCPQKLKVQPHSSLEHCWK

One may read the Ki as a measure of affinity in units of concentration, obtained from inhibition or displacement. Lower therefore signals higher affinity. In turn, `c1nc(CN2CCNCC2)c[nH]1` came in with a Ki at H₃ receptors of 4.7 nM. As to `CC1CN(Cc2c[nH]cn2)C(C)CN1` (stereo not drawn), at H₃ receptors, the “H3 Binding (inhibition of the specific binding of radioactive ligand)” value was determined as 6%. Same read-out and setting: for `C[C@@H]1CN(Cc2c[nH]cn2)C[C@H](C)N1` the value was 24%.

At H₃ receptors, `c1nc(CN2CCCNCC2)c[nH]1` showed a Ki of 87 nM. For the compound `NCCc1c[nH]cn1` [(a*), reference compound], the inhibition constant Ki at H₃ receptors was 14 nM. For `NCCc1c[nH]cn1` [histamine], the “maximal inhibition of release” value in experiment [1] is on record as “approximately 60%”.
